Test [1] in a line: Reduction in C26:0 LPC level in ABCD1 (-/y) knock out mouse brain at 0.4 to 2 mg/kg, ip administered daily measured after 4.5 months by LC-MS/MS analysis. Details: scale not given: the % may be the effect or the level left. The following applies: dose 0.4-2 mg/kg, 3285 h. The class given is functional.
Test [2] has as its target T1, Very long chain fatty acid elongase 1 (Homo sapiens, UniProt Q9BW60).
T1 sequence (Q9BW60 whole entry): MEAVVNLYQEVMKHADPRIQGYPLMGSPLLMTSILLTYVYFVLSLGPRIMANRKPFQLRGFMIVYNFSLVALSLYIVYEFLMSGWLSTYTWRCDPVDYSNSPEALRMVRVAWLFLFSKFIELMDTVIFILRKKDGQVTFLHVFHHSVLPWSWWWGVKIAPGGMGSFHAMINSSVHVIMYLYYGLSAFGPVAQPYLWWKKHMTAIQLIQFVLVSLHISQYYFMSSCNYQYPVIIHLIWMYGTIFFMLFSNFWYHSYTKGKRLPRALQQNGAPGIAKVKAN
The experiment in a line: Inhibition of ELOVL1 (unknown origin) using C22-acyl-CoA as substrate by radiometric enzyme assay.

Test [3] concerns the target T2, Very long chain fatty acid elongase 7 (Homo sapiens, UniProt A1L3X0).
T2 sequence (A1L3X0 whole entry): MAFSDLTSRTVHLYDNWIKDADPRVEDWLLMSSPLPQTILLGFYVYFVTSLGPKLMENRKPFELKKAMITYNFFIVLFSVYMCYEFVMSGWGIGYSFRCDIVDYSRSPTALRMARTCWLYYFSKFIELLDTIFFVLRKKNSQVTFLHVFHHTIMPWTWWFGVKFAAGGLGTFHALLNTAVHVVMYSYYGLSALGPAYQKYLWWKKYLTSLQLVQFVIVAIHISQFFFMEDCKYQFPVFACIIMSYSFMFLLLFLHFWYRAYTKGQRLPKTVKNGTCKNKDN
The experiment in a line: Inhibition of ELOVL7 (unknown origin) using C18-acyl-CoA as substrate by radiometric enzyme assay.

For test [4], the target named is T3, Very long chain fatty acid elongase 6 (Homo sapiens, UniProt Q9H5J4).
T3 sequence (Q9H5J4 whole entry): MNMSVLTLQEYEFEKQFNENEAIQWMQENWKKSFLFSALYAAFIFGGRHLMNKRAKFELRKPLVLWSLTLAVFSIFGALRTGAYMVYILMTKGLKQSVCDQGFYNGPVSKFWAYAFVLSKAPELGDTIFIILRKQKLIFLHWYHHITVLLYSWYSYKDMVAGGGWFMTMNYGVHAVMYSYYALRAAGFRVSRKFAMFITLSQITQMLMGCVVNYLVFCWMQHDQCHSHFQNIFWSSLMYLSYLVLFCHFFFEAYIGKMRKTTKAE
The test can be described thus: Inhibition of ELOVL6 (unknown origin) using C16-acyl-CoA as substrate by radiometric enzyme assay.

In ChEMBL document CHEMBL5131397, “Discovery and Optimization of Pyrazole Amides as Inhibitors of ELOVL1” (J Med Chem, 2021) one finds Activity and IC50 data, which are given here for 4 molecules.

By IC50 is commonly meant the concentration at which inhibition is half-maximal.

Each structure is given as a SMILES string. A value given as a limit tells only on which side of the number the result lay.

`Cc1cc(OCC(=O)O)cc(C)c1Cc1ccc(O)c(C(C)C)c1` [SOBETIROME]: the Activity in test [1] is 21%.
Regarding `O=C(Cc1ccccc1F)Nc1nc(-c2ccnc(F)c2)cs1`, the values for the IC50 in test [2], in test [3] and in test [4] were 4.4 µM, greater than 100 µM and greater than 100 µM, respectively.
Turning to `O=C(Nc1nc(-c2ccncc2)cs1)C1(c2ccccc2)CC1`, the values for the half-maximal inhibitory concentration (IC50) in test [2], in test [3] and in test [4] were 1.8 µM, greater than 100 µM and greater than 100 µM, respectively.
Consider `O=C(Nc1nc(-c2ccccc2)cs1)C1CCCO1` (stereo not given), for which the figures for the 50% inhibitory concentration (IC50) in test [2], in test [3] and in test [4] were 30 µM, greater than 100 µM and greater than 100 µM, respectively.
